Where two headings read alike, the source gives them in different places. Bounds are passed on as bounds.

Consider 25 compounds from patent US9969726B2, “Metabotropic glutamate receptor negative allosteric modulators (NAMS) and uses thereof” (Sanford-Burnham Medical Research Institute, priority 2014, dated 2018).

One test has as its target rat mGlu2 receptor (Rattus norvegicus (Rat), UniProt P31421). Briefly: mGlu2 in vitro GIRK thallium flux assay. The test is classed as cell-based. The following applies: NAM, EC80 glutamate, HEK-293 GIRK cells. The procedure:
(§1) All cell culture reagents were purchased from Invitrogen Corp. (Carlsbad, Calif.) unless otherwise noted. Compound activity at the group II (mGlu2 and mGlu3) mGlus was assessed using thallium flux through GIRK channels. Briefly, cells were plated into 384-well, black-walled, clear-bottomed poly-D-lysine-coated plates at a density of 15,000 cells/20 μL/well in DMEM containing 10% dialyzed FBS, 20 mM HEPES, and 100 units/mL penicillin/streptomycin (assay media). Plated cells were incubated overnight at 37° C. in the presence of 5% CO2. […] Cells were incubated for 1 h at room temperature, and the dye exchanged to assay buffer using an ELX405, leaving 20 μL/well. Test compounds were diluted to 2 times their final desired concentration in assay buffer (0.3% DMSO final concentration). […] Cell plates and compound plates were loaded onto a kinetic imaging plate reader (FDSS 6000 or 7000; Hamamatsu Corporation, Bridgewater, N.J.). Appropriate baseline readings were taken (10 images at 1 Hz; excitation, 470±20 nm; emission, 540±30 nm) and test compounds were added in a 20 μL volume and incubated for either 2.5 min or 60 min as indicated before the addition of 10 μL of thallium buffer with or without agonist. After the addition of agonist, data were collected for approximately an additional 2.5 min. Data were analyzed using Excel (Microsoft Corp, Redmond, Wash.). The slope of the fluorescence increase beginning 5 s after thallium/agonist addition and ending 15 s after thallium/agonist addition was calculated, corrected to vehicle and maximal agonist control slope values, and plotted in using either XLfit (ID Business Solutions Ltd) or Prism software (GraphPad Software, San Diego, Calif.) to generate concentration-response curves. Potencies were calculated from fits using a four-point parameter logistic equation. For concentration-response curve experiments, compounds were serially diluted 1:3 into 10 point concentration response curves and were transferred to daughter plates using an Echo acoustic plate reformatter (Labcyte, Sunnyvale, Calif.). Test compounds were applied and followed by EC80 concentrations of glutamate.

The next test addresses rat mGlu3 receptor (Rattus norvegicus (Rat), UniProt P31422). Briefly: mGlu3 in vitro GIRK thallium flux assay. It is filed as cell-based. The following applies: NAM; 2.5 min compound incubation; EC80 glutamate; HEK-293 GIRK cells. The procedure:
as §1

Where [1] appears, read: mGlu2 EC50 (μM) (60 min), 60 min compound incubation.
Setting [2] is: 2.5 min compound incubation, read-out: mGlu2 EC50 (μM) (2.5 min).
[3] abbreviates: read-out: mGlu2 EC50 (μM) (60 min), 60 min compound incubation.

Chain of rat mGlu3 receptor (P31422 23-879): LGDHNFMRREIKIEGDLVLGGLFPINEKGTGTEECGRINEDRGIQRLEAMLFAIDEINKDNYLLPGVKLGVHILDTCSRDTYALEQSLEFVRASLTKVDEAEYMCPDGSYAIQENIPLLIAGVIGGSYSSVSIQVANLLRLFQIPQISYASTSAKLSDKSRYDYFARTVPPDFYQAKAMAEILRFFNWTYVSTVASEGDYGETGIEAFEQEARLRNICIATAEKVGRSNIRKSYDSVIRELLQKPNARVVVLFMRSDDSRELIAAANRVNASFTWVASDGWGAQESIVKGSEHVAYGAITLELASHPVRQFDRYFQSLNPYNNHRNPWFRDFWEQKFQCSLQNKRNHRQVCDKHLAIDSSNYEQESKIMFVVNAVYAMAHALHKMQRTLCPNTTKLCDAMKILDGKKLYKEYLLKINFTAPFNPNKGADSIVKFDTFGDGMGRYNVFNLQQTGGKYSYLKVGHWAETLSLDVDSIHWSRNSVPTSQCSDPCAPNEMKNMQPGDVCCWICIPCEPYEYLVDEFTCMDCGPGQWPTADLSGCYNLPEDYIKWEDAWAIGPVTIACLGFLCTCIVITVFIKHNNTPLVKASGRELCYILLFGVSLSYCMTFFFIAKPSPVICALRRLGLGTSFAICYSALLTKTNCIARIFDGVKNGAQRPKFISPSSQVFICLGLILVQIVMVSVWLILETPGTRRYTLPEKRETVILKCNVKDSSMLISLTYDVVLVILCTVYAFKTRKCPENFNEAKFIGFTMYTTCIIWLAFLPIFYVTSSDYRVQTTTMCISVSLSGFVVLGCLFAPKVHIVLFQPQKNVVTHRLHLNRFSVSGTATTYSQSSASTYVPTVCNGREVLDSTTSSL
Chain of rat mGlu2 receptor (P31421 19-872): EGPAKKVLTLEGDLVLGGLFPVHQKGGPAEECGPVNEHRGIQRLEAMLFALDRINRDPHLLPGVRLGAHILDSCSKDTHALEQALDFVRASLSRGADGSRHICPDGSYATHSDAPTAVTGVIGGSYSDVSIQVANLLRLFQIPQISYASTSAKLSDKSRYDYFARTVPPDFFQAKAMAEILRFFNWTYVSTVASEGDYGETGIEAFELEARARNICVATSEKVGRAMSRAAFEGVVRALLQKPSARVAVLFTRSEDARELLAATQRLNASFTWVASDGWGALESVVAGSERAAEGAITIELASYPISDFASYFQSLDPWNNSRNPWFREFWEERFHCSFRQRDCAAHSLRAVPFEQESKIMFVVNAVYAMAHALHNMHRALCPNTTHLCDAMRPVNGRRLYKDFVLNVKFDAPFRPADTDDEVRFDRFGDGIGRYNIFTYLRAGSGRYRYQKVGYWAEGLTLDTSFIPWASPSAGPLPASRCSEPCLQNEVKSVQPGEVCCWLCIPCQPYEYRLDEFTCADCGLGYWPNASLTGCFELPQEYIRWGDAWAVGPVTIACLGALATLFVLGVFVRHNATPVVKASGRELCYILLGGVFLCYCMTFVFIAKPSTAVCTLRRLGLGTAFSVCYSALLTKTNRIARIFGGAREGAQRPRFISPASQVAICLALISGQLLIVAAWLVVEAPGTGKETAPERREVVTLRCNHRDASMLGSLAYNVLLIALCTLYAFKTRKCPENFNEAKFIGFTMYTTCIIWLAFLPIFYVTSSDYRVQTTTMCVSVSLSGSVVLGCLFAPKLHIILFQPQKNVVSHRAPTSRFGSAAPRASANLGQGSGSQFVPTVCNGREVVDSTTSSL

`COC(=O)c1cccc(C2CC(=O)Nc3cc(C(F)(F)F)c(C)cc3N2)c1` (racemic) [Example 151, (±)-Methyl 3-(8-methyl-4-oxo-7-(trifluoromethyl)-2,3,4,5-tetrahydro-1H-benzo[b][1,4]diazepin-2-yl)benzoate]: the EC50 (usually the concentration needed to bring the measured effect to its halfway point) on rat mGlu2 receptor (setting [1]) was over 10 µM.

Regarding `Cc1cc2c(cc1C(F)(F)F)NC(=O)CC(c1cccc(CCCO)c1)N2` (racemic) [Example 154, 4-(3-(3-Hydroxypropyl)phenyl)-7-methyl-8-(trifluoromethyl)-4,5-dihydro-1H-benzo[b][1,4]diazepin-2(3H)-one], the EC50 on rat mGlu3 receptor was over 10 µM; on rat mGlu2 receptor (setting [2]), over 10 µM; at rat mGlu2 receptor (setting [1]) it was 4.43 µM.

With `Cc1cc(-c2cccc(C3CC(=O)Nc4cc(C(F)(F)F)c(C)cc4N3)c2)cc(C)n1` (racemic) [Example 156, 4-(3-(2,6-Dimethylpyridin-4-yl)phenyl)-7-methyl-8-(trifluoromethyl)-4,5-dihydro-1H-benzo[b][1,4]diazepin-2(3H)-one], the EC50 at rat mGlu3 receptor is over 10 µM; on rat mGlu2 receptor (setting [2]), over 10 µM; on rat mGlu2 receptor (setting [1]), 3.7 µM.

`O=C1CC(c2cccc(Br)c2)Nc2ccc(NC(=O)OCc3ccccc3)cc2N1` (racemic) [Example 158, Benzyl (2-(3-bromophenyl)-4-oxo-2,3,4,5-tetrahydro-1H-benzo[b][1,4]diazepin-7-yl)carbamate]: at rat mGlu2 receptor (setting [1]), the EC50 is over 10 µM.

The compound `N#Cc1cc(C2CC(=O)Nc3cc(C(=O)O)ccc3N2)ccn1` (racemic) [Example 160, 2-(2-Cyanopyridin-4-yl)-4-oxo-2,3,4,5-tetrahydro-1H-benzo[b][1,4]diazepine-7-carboxylic Acid] came in with an EC50 on rat mGlu2 receptor (setting [1]) of over 30 µM.

In the case of `N#Cc1cccc(C2CC(=O)Nc3cc(C(=O)O)ccc3N2)c1` (racemic) [Example 161, 2-(3-Cyanophenyl)-4-oxo-2,3,4,5-tetrahydro-1H-benzo[b][1,4]diazepine-7-carboxylic Acid], at rat mGlu2 receptor (setting [1]), the EC50 is over 30 µM.

In the case of `Cc1cc(-c2cccc(C3CC(=O)Nc4cc(NC(=O)OCc5ccccc5)ccc4N3)c2)cc(C)n1` (racemic) [Example 162, Benzyl (2-(3-(2,6-dimethylpyridin-4-yl)phenyl)-4-oxo-2,3,4,5-tetrahydro-1H-benzo[b][1,4]diazepin-7-yl)carbamate], the EC50 at rat mGlu3 receptor was over 10 µM; at rat mGlu2 receptor (setting [2]) it was over 10 µM; at rat mGlu2 receptor (setting [1]) it was 5.36 µM.

For `Cc1cc2c(cc1C(F)(F)F)NC(=O)CC(c1cccc(Oc3ncccn3)c1)N2` (racemic) [Example 164, 7-Methyl-4-(3-(pyrimidin-2-yloxy)phenyl)-8-(trifluoromethyl)-4,5-dihydro-1H-benzo[b][1,4]diazepin-2(3H)-one], the values for the EC50 at rat mGlu3 receptor, at rat mGlu2 receptor (setting [2]) and on rat mGlu2 receptor (setting [1]) were 5.57 µM, over 10 µM and 1.56 µM, respectively.

With `Cc1cc2c(cc1C(F)(F)F)NC(=O)CC(c1cccc(Oc3ccccn3)c1)N2` (racemic) [Example 165, 7-Methyl-4-(3-(pyridin-2-yloxy)phenyl)-8-(trifluoromethyl)-4,5-dihydro-1H-benzo[b][1,4]diazepin-2(3H)-one], the EC50 at rat mGlu3 receptor is 3.47 µM; at rat mGlu2 receptor (setting [2]), 4.37 µM; at rat mGlu2 receptor (setting [1]) it was 1.47 µM.

`Cc1cc2c(cc1C(F)(F)F)NC(=O)CC(c1cccc(-n3ccc4ccccc43)c1)N2` (racemic) [Example 167B, 4-(3-(1H-Indol-1-yl)phenyl)-7-methyl-8-(trifluoromethyl)-4,5-dihydro-1H-benzo[b][1,4]diazepin-2(3H)-one] returned a half-maximal effective concentration (EC50) on rat mGlu2 receptor (setting [1]) of over 10 µM.

Compound `C#CCNC(=O)c1cccc(C2CC(=O)Nc3cc(C(F)(F)F)c(C)cc3N2)c1` (racemic) [Example 170B, 3-(8-Methyl-4-oxo-7-(trifluoromethyl)-2,3,4,5-tetrahydro-1H-benzo[b][1,4]diazepin-2-yl)-N-(prop-2-yn-1-yl)benzamide] came in with an EC50 on rat mGlu2 receptor (setting [1]) of 3.68 µM.

Take `Cc1cc2c(cc1C(F)(F)F)NC(=O)CC(c1cccc(OCc3ccccc3)c1)N2` (racemic) [Example 178, 4-(3-(Benzyloxy)phenyl)-7-methyl-8-(trifluoromethyl)-4,5-dihydro-1H-benzo[b][1,4]diazepin-2(3H)-one]: at rat mGlu2 receptor (setting [1]), the EC50 was over 10 µM.

Turning to `Cc1cc2c(cc1C(F)(F)F)NC(=O)CC(c1cccc(CCC(=O)O)c1)N2` (single isomer, unassigned) [Example 155B, 3-(3-(8-methyl-4-oxo-7-(trifluoromethyl)-2,3,4,5-tetrahydro-1H-benzo[b][1,4]diazepin-2-yl)phenyl)propanoic acid], the EC50 at rat mGlu2 receptor (setting [1]) was over 10 µM.

As for `Cc1cc2c(cc1C(F)(F)F)NC(=O)CC(c1cccc(Sc3ncccn3)c1)N2` (single isomer, unassigned) [Example 166B, 7-Methyl-4-(3-(pyrimidin-2-ylthio)phenyl)-8-(trifluoromethyl)-4,5-dihydro-1H-benzo[b][1,4]diazepin-2(3H)-one], the EC50 on rat mGlu3 receptor stood at 4.53 µM; at rat mGlu2 receptor (setting [2]) it was 8.47 µM; on rat mGlu2 receptor (setting [3]), 1.23 µM.

`Cc1cc2c(cc1C(F)(F)F)NC(=O)CC(c1cccc(C(N)=O)c1)N2` (single isomer, unassigned) [Example 168A, 3-(8-Methyl-4-oxo-7-(trifluoromethyl)-2,3,4,5-tetrahydro-1H-benzo[b][1,4]diazepin-2-yl)benzamide] registered a 50% effective concentration (EC50) at rat mGlu2 receptor (setting [1]) of over 10 µM.

As for `Cc1cc2c(cc1C(F)(F)F)NC(=O)CC(c1cccc(Oc3cc(F)cc(F)c3)c1)N2` (single isomer, unassigned) [Example 174B, 4-(3-(3,5-Difluorophenoxy)phenyl)-7-methyl-8-(trifluoromethyl)-4,5-dihydro-1H-benzo[b][1,4]diazepin-2(3H)-one], the EC50 at rat mGlu2 receptor (setting [3]) was over 10 µM.

In turn, `C#Cc1cccc(C2CC(=O)Nc3cc(C(F)(F)F)c(C)cc3N2)c1` (single isomer, unassigned) [Example 175B, 4-(3-Ethynylphenyl)-7-methyl-8-(trifluoromethyl)-4,5-dihydro-1H-benzo[b][1,4]diazepin-2(3H)-one] registered an EC50 on rat mGlu2 receptor (setting [1]) of 4.47 µM.

For the compound `Fc1ccc(-c2cccc(-c3nc(-c4ccc(C(F)(F)F)nc4)cc(C(F)(F)F)n3)c2)cc1-c1nn[nH]n1` [Example 124, 2-(4′-Fluoro-3′-(2H-tetrazol-5-yl)-[1,1′-biphenyl]-3-yl)-4-(trifluoromethyl)-6-(6-(trifluoromethyl)pyridin-3-yl)pyrimidine], the EC50 on rat mGlu2 receptor (setting [3]) amounted to 1.29 µM.

`O=c1[nH]c(-c2cc(-c3cccc(-c4nc(-c5ccoc5)cc(C(F)(F)F)n4)c3)ccc2F)no1` [Example 133, 3-(4-Fluoro-3′-(4-(furan-3-yl)-6-(trifluoromethyl)pyrimidin-2-yl)-[1,1′-biphenyl]-3-yl)-1,2,4-oxadiazol-5(4H)-one]: the EC50 at rat mGlu2 receptor (setting [3]) came out at 0.73 µM.

As for `Fc1ccc(-c2cccc(-c3nc(-c4ccoc4)cc(C(F)(F)F)n3)c2)cc1-c1noc(=S)[nH]1` [Example 134, 3-(4-Fluoro-3′-(4-(furan-3-yl)-6-(trifluoromethyl)pyrimidin-2-yl)-[1,1′-biphenyl]-3-yl)-1,2,4-oxadiazole-5(4H)-thione], the EC50 on rat mGlu2 receptor (setting [3]) was over 10 µM.

For the compound `O=c1[nH]c(-c2cc(-c3cccc(-c4nc(-c5ccoc5)cc(C(F)(F)F)n4)c3)ccc2F)ns1` [Example 135, 3-(4-Fluoro-3′-(4-(furan-3-yl)-6-(trifluoromethyl)pyrimidin-2-yl)-[1,1′-biphenyl]-3-yl)-1,2,4-thiadiazol-5(4H)-one], the EC50 at rat mGlu2 receptor (setting [3]) was over 10 µM.

For `Cc1cccc(C#Cc2cccc(C3=Nc4cc(C)c(C(F)(F)F)cc4NC(=O)C3)c2)n1` [Example 138, 7-Methyl-4-(3-((6-methylpyridin-2-yl)ethynyl)phenyl)-8-(trifluoromethyl)-1H-benzo[b][1,4]diazepin-2 (3H)-one], the EC50 on rat mGlu2 receptor (setting [3]) was over 10 µM.

As for `Cc1cc2c(cc1C(F)(F)F)NC(=O)CC(c1cccc(Nc3ccccn3)c1)=N2` [Example 141, 7-Methyl-4-(3-(pyridin-2-ylamino)phenyl)-8-(trifluoromethyl)-1H-benzo[b][1,4]diazepin-2(3H)-one], the EC50 at rat mGlu2 receptor (setting [3]) was over 10 µM.

`CCOC(=O)/C=C/c1cccc(C2=Nc3cc(C)c(C(F)(F)F)cc3NC(=O)C2)c1` [Example 152, Ethyl 3-(3-((E)-7-methyl-2-oxo-8-(trifluoromethyl)-2,3-dihydro-1H-benzo[b][1,4]diazepin-4-yl)phenyl)acrylate]: the EC50 on rat mGlu2 receptor (setting [3]) is 3.26 µM.

On to `O=C1CC(c2cccc(Br)c2)=Nc2ccc(NC(=O)OCc3ccccc3)cc2N1` [Example 157, Benzyl (4-(3-bromophenyl)-2-oxo-2,3-dihydro-1H-benzo[b][1,4]diazepin-8-yl)carbamate], for which the EC50 at rat mGlu2 receptor (setting [3]) is over 10 µM.
